Test results reported in patent publication US7572376B2, “Process for producing 1,3-propanediol” (Tate & Lyle Ingredients Americas, Inc., priority 2003, dated 2009).

Legend:
[1] = log P=[solute]octanol/[solute]water; cited from earlier work
[2] = solvent screen: PDO mixture with single solvents, distribution between solvent and aqueous phase; format: physicochemical; conditions: 30° C.; for Distribution Coefficient Glucose / Distribution Coefficient Glycerol / Distribution Coefficient PDO: conc. in solvent phase / conc. in aqueous phase, aqueous solution 46% w/v PDO, 3.5% glycerol, […] glucose; for Selectivity PDO/Glycerol: distribution coefficient of PDO divided by that of glycerol
Description: 10 g of an aqueous solution containing 46% w/v PDO, 3.5% glycerol and 2.9% glucose was heated to 30° C. and the required solvent added in very small quantities until a cloudiness just began to develop. Additional solvent (about 1 g) was added and thoroughly mixed. The mixture was allowed to settle for 10 minutes and then centrifuged to achieve complete phase separation. The two phases (solvent and aqueous) were analyzed.

Row | SMILES | hydrophobic parameter log P [1] | Distribution Coefficient Glucose [2] | Distribution Coefficient Glycerol [2] | Distribution Coefficient PDO [2] | Selectivity PDO/Glycerol [2] | also measured
1 | CC(O)CO (stereo not shown) [1,2 PDO] | −1.003 | – | – | – | – | –
2 | OCCCCO [1,4 butanediol] | −1.384 | – | – | – | – | –
3 | CC(=O)CC(C)C [4-Methyl Pentan-2-one] | – | 0.001 | 0.008 | 0.033 | 4.03 | –
4 | CCCCO [Butan-1-ol] | – | – | – | – | – | phase formation on adding solvent to the aqueous PDO solution [2]: Only one liquid phase formed
5 | CCCCCCCC/C=C\CCCCCCCC(=O)O [Oleic acid] | – | 0.241 | 0.002 | 0.009 | 5.23 | –
6 | CCCCCCCC/C=C\CCCCCCCCO [Oleyl Alcohol] | – | 0.001 | 0.024 | 0.038 | 1.60 | –
7 | CCCCCO [Pentan-1-ol] | – | 0.256 | 0.417 | 0.609 | 1.46 | –
8 | CCCCCCCCCC [decane] | 5.98 | – | – | – | – | –
9 | CCCCCCCCCCCCO [dodecanol] | 5.0 | – | – | – | – | –
10 | CCOC(C)=O [ethyl acetate] | 0.68 | – | – | – | – | –
11 | OCC(O)CO [glycerol] | −2.08 | – | – | – | – | –
12 | CCCCCCC [heptane] | 4.0 | – | – | – | – | –
13 | CCCCCCCO [heptanol] | 2.4 | – | – | – | – | –
14 | CC(=O)OC(C)C [isopropyl acetate] | – | 0.001 | 0.005 | 0.024 | 5.17 | –
15 | CCCCCCCC [octane] | 4.5 | – | – | – | – | –
16 | CCCOC(C)=O [propyl acetate] | 1.2 | – | – | – | – | –
